For assay [1], the target named is T1, HDAC6 (Homo sapiens, UniProt Q9UBN7).
T1 sequence (Q9UBN7 1-1215): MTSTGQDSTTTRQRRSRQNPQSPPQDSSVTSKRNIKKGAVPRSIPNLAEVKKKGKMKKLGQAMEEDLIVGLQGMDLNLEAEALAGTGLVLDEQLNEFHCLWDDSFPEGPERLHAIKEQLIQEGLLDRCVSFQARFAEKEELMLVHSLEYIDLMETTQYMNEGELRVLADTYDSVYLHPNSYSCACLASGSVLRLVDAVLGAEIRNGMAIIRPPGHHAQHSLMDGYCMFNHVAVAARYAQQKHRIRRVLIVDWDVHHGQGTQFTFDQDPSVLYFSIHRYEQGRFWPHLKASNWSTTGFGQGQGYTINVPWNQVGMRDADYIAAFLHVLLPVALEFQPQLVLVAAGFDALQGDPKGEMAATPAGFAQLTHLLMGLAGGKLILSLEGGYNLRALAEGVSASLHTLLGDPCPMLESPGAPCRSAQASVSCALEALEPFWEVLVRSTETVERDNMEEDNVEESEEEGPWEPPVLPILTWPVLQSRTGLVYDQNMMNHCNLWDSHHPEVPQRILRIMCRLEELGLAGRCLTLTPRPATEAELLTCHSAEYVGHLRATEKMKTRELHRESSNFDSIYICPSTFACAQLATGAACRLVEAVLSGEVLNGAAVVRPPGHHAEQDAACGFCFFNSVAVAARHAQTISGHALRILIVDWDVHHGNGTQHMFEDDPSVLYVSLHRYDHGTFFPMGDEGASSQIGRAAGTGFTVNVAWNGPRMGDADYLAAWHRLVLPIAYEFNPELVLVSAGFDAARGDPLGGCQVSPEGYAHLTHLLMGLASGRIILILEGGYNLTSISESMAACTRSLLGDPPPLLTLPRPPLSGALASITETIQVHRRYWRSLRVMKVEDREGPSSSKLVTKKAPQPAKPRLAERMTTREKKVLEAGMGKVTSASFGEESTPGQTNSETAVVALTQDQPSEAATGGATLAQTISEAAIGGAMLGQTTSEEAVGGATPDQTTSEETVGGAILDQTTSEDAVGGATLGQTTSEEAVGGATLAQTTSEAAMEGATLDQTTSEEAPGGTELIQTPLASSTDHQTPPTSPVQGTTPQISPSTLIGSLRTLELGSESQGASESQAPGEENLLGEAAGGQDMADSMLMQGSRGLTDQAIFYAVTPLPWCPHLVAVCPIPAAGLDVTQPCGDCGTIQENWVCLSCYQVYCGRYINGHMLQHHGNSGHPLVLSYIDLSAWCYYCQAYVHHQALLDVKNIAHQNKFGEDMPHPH
Further details: endogenous in cells; method as in PMID 37481141. The conditions noted are these: THP-1 cells; cited from earlier work.

The target of assay [2] is T1, HDAC6. Further details: method as in PMID 26471297. The conditions noted are these: BMDMs; cited from earlier work.
In assay [3] the test system is NLRP3 inflammasome. The assay is described as follows: IL-1β release in THP-1 cells after nigericin stimulation. The settings on record: dTAG 1 μM. It is filed as cell-based, human.
Experimental: B, establishment of a THP-1 F10-FKBP cell line with degradable DARPin F10. Immunoblotting with lysates of THP-1 F10-FKBP cells treated at the indicated concentration with dTAG (for 6 h). […] The membrane was probed with antibodies against actin as loading control and F10 (HA-F10-FKBP ^F36V, detected with anti-HA). C, IL-1β release under various treatments in THP-1 F10-FKBP cells at 3 h post-nigericin stimulation. Cells were treated as indicated in the scheme at the top. […] One-way ANOVA test was applied for statistical analysis. ∗∗∗∗p <0.0001. […] D, IL-1β release from 0 h to 3.5 h after nigericin treatment in THP-1 or THP-1-F10-FKBP cells. Experimental set-up was as in (B) and IL-1β concentration was monitored at timepoint 0, 0.5, 1.5, and 3.5 h post nigericin treatment. Two-way ANOVA tests were applied, and comparison was performed within each timepoint between with and without dTAG group. ∗∗p< 0.01. Experimental setup as in (C).
Human IL-1β and IL-18 were determined with Cisbio HTRF Cisbio Human IL1β (#62HIL1BPET) and Human IL18 (#62HIL18PEG) protocols. All the data were from 3 or 4 independent biological replicates.
For BMDM cells, 1.5 × 10^6 cells per well were seeded in six-well plates. After priming with 1 μg/ml LPS (Invivogen #tlrl-b5lps), cells were challenged with 200 μg/ml MSU crystals (Invivogen #tlrl-msu-25) for 6 h or 20 μM nigericin (Sigma-Aldrich #N7143-5MG) for 30 min. […]
In assay [4] the target is T2, HA-F10-FKBP F36V (Homo sapiens, UniProt P62942, F37V).
T2 construct: expressed in transfected cells; host or cells: THP-1, lentiviral transduction, single-cell clone
The assay is described as follows: dTAG-induced degradation of DARPin F10-FKBPF36V in THP-1 cells (immunoblot). It is filed as cell-based. The conditions noted are these: F10-FKBPF36V THP-1 cells, within 6 h of dTAG addition. Background: In western blotting, separated proteins are transferred to a membrane and probed.
Experimental: B, establishment of a THP-1 F10-FKBP cell line with degradable DARPin F10. Immunoblotting with lysates of THP-1 F10-FKBP cells treated at the indicated concentration with dTAG (for 6 h). […] The membrane was probed with antibodies against actin as loading control and F10 (HA-F10-FKBP ^F36V, detected with anti-HA).
The membrane was blocked with 5% milk-TBS, and then incubated with primary antibodies overnight at 4 °C. The signal was developed with HRP-conjugated secondary antibodies and Amersham ECL Western Blotting Detection Reagent (Cytiva#RPN2106).

Structures are written as SMILES.

These results are taken from PMC10850954, “HDAC6/aggresome processing pathway importance for inflammasome formation is context-dependent” (The Journal of Biological Chemistry, 2024).

T2 sequence (P62942 2-108 F37V limits assumed): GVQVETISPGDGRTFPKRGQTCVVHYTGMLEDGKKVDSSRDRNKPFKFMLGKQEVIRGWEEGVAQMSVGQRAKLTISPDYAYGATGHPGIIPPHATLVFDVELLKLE
T2 sequence (Q96SW2 whole entry, further chain): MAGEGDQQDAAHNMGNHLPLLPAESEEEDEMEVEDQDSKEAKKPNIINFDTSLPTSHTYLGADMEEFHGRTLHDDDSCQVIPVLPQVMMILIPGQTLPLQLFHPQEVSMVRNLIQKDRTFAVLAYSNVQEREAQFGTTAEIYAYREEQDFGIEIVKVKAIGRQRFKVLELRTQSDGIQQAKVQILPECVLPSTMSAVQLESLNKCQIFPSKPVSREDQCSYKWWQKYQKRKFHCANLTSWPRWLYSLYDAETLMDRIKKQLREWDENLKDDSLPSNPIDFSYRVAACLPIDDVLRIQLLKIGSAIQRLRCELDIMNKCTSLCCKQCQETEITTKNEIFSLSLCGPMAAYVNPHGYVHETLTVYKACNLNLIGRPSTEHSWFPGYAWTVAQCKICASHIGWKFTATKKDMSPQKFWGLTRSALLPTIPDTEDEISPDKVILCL

For the compound `CN1CCc2c(c3ccccc3n2Cc2ccc(C(=O)NO)cc2)C1` [Tubastatin A], the IL-1β release entry in assay [1] is recorded as “reduced IL-1β release”. The mIL-1β level result in assay [2] is on record as “did not impact the mIL-1β level”.
For `CC[C@H](C(=O)N1CCCC[C@H]1C(=O)O[C@H](CCc1ccc(OC)c(OC)c1)c1ccccc1OCC(=O)NCCCCCCOc1cccc2c1C(=O)N(C1CCC(=O)NC1=O)C2=O)c1cc(OC)c(OC)c(OC)c1` (some centres unmarked) [dTAG], the IL-1β release entry in assay [3] (F10-FKBPF36V THP-1 cells, PMA 0.5 μM, nigericin 15 μM, compared to WT THP-1) is recorded as “partial, but significant, recovery”; in assay [3] (parental WT THP-1, PMA 0.5 μM 3 h, nigericin 15 μM 3 h, MCC950 10 μM), “comparable”. Moreover, in assay [4], the “degradation of DARPin F10” value was “efficiently degraded”.
